The source of these data is US8946224B2, “Substituted [1,2,4]triazolo[4,3-A]pyrazines for medicaments and pharmaceutical compositions” (Redx Pharma Limited, priority 2010, dated 2015).

In brackets after ≈: the same amount, converted by molar mass. Several values for one entry are separate records, joined by “and”; a condition that tells them apart may be missing. Equal values may be shown once. Read-outs that look alike come from different tables or passages of the source.

A word on the EC50: it is the concentration needed to bring the measured effect to its halfway point. The IC50 is the concentration that inhibits the measured activity by half. A higher IC50 goes with lower potency. As usually defined, the EC90 is the concentration at which the effect reaches the 90% level.

Assay [1] has as its system PathHunter NHRPro cell lines. The assay is described as follows: PathHunter NHRPro cell assay, agonist format (Examples 90-92). In kind it is cell-based. The conditions noted are these: for EC50: read-out: RC50 (EC50).
Assay [2] has as its target neuraminidase of oseltamivir-sensitive influenza virus (UniProt P03468). In kind it is biochemical.
In another assay the test system is plasma triglycerides. The assay is described as follows: Rat plasma triglyceride levels after 3 or 5 days BID treatment. In kind it is in vivo. The conditions noted are these: 25 mg/kg po BID for 3 or 5 days, 16 hours after the last dose. How it is done:
The efficacy of particular rosuvastatin compounds was then determined in vivo.
112 male SD rats (Harlan) were housed in groups of 6 under a 12 h light dark cycle (lights on 07.00 h) with free access to food (normal laboratory chow) and water. Animals between 148-183 g were allocated to treatment groups of 8 balanced by body weight and treatments were balanced across cages.
The rosuvastatin analogues were made up in 10% PEG300/10% cremophor/80% methyl cellulose (0.5%) (vehicle 1) to make a 5 mg/mL solution. The rosuvastatin compounds used were:
Rosuvastatin was formulated in 0.5% Tween in 0.5% methyl cellulose (vehicle 2) at 5 mg/kg as a suspension.
Rats were orally dosed with vehicle 1, one of the rosuvastatin analogues in vehicle 1 (25 mg/kg), vehicle 2 or rosuvastatin in vehicle 2 (25 mg/kg po), BID for 3 or 5 days.
Sixteen hours after the last treatment, terminal plasma samples were taken, stored at −20° C., and transported on dry ice for analysis of triglyceride levels.
Data for each time-point were analysed by 1-way ANOVA and post-hoc Dunnett's test.

Assay [3] has as its system PathHunter NHRPro cell lines. The assay is described as follows: PathHunter NHRPro cell assay, agonist format (Examples 90-92). In kind it is cell-based. The note with it: RARβ, NHR Protein Interaction; for EC50: read-out: RC50 (EC50); for Emax: read-out: Max Response. How it is done:
Methodology for Examples 90-92 Cell Handling
PathHunter NHRPro cell lines were expanded from freezer stocks in T25 flasks according to standard procedures and maintained in selective growth media prior to assay.
Once it was established that the cells were healthy and growing normally, cells were passaged from flasks using cell dissociation reagent and seeded into white walled clear bottom 384-well microplates for compound profiling.
For profiling, cells were seeded at a density of 10000 cells per well in a total volume of 20 μL and were allowed to adhere and recover overnight prior to compound addition. Media contained charcoal-dextran filtered serum to reduce the level of hormones present.
Intermediate dilution of compound stocks were generated such that 5 μL of 5× compound could be added to each well with a final DMSO concentration of 1% of total volume.
For profiling compound in agonist mode, the cells were incubated in the presence of compound at 37° C. for 5 hours.
After appropriate compound incubation, assay signal was generated through a single addition of 15 μL (50% v/v) of PathHunter Detection reagent cocktail for agonist and antagonist assays respectively followed by one hour incubation at room temperature.
Microplates were read following signal generation with a PerkinElmer Envision™ instrument for chemiluminescent signal detection.
Dose curves in the presence and absence of compound were plotted using GraphPad Prism or Activity Base.
For the agonist mode, percentage activity was calculated using the following formula: % Activity=100%×(Mean RLU of test sample−mean RLU of vehicle control)/(mean MAX RLU control ligand−mean RLU of vehicle control).

The next assay deals with DPPIV (Homo sapiens, UniProt P27487). The assay is described as follows: DPPIV protease inhibition, substrate Gly-Pro-AMC (Example 97). In kind it is biochemical. How it is done: The solutions of the compounds to be tested were prepared in DMSO at a concentration of 10 mM, divided into aliquots and stored at −20° C. The stock solutions were further diluted with assay buffer to make final test solutions. All the final test solutions contained no more than 2.0% DMSO.
Data were recorded by PHEARstar^PLUS.
Each assay was repeated for each compound 10 times.

For assay [4], the system named is anaerobic bacterial strains. In words: microbe, parasite or virus in culture. The format is cell-based, bacteria. The note with it: read-out: MIC (>90%).
A further assay relates to HepG2 cells. The assay is described as follows: HepG2 cytotoxicity, MTT, 72 hours (Examples 93-95). The format is cell-based. The conditions noted are these: for MEC (minimum effective concentration that significantly crosses vehicle threshold) / AC50: Cell Loss; for AC50: Homo sapiens, HepG2, read-out: AC50 (concentration at which 50% maximum effect is observed). As to the method: Methodology for Examples 93-95
A number of analogues were tested for their ability to kill cancer cells.
HepG2 cells were plated on 96-well tissue culture treated polystyrene plates at 0.5×10^4 cells in 100 μL per well. After 24 hr the cells are dosed with test compound at a range of concentrations and incubated for 72 hours. One hour prior to the end of the incubation period, the cells are loaded with MU [yellow; 3-(4,5-dimethyl-2-thiazolyl)-2,5-diphenyl-2H-tetrazolium bromide], the plates are dried and re-solubilised using DMSO. The plates are then scanned using SpectraFluor Plus (TECAN).
Cytotoxicity was assessed using MU. The assay provides a measurement of mitochondrial dehydrogenase activity and cell loss.
A decrease can indicate a loss of cells indicating toxicity due to necrosis, apoptosis or a reduction in cellular proliferation.
A decrease can also indicate an effect on mitochondrial function as mitochondrial dehydrogenasesreduce the MTT [yellow; 3-(4,5-dimethyl-2-thiazolyl)-2,5-diphenyl-2H-tetrazolium bromide] to formazan. The formazan is detected in this assay.
The cells were dosed at concentrations of 0.04, 0.1, 0.4, 1, 4, 10, 40 and 100 μM. The assay was repeated three times at each concentration.
AC50=The concentration at which 50% maximum effect is observed for each cell health parameter.
The cells were dosed at concentrations of 0.02, 0.05, 0.2, 0.5, 2, 5, 20 and 50 μM. The assay was repeated three times at each concentration.
The cells were dosed at concentrations of 0.04, 0.1, 0.4, 1, 4, 10, 40 and 100 μM for bexarotene and the compound of formula 102 when Z is CH═NOH (compound 13a). The cells were dosed at concentrations of 0.02, 0.05, 0.2, 0.5, 2, 5, 20 and 50 μM for the compound of formula 102 when Z is CH═NOMe (compound 13b). The assay was repeated three times at each concentration.

The mark [5] stands for this setting: Bacteroides fragilis, ATCC25293, 48 h.
[6] abbreviates: Prevotella melaninogenica, ATCC25845, 48 h.
Where [7] appears, read: Example 95, dosed 0.04-100 μM (compound 13b 0.02-50 μM).

DPPIV, sequence (P27487 whole entry, species assumed): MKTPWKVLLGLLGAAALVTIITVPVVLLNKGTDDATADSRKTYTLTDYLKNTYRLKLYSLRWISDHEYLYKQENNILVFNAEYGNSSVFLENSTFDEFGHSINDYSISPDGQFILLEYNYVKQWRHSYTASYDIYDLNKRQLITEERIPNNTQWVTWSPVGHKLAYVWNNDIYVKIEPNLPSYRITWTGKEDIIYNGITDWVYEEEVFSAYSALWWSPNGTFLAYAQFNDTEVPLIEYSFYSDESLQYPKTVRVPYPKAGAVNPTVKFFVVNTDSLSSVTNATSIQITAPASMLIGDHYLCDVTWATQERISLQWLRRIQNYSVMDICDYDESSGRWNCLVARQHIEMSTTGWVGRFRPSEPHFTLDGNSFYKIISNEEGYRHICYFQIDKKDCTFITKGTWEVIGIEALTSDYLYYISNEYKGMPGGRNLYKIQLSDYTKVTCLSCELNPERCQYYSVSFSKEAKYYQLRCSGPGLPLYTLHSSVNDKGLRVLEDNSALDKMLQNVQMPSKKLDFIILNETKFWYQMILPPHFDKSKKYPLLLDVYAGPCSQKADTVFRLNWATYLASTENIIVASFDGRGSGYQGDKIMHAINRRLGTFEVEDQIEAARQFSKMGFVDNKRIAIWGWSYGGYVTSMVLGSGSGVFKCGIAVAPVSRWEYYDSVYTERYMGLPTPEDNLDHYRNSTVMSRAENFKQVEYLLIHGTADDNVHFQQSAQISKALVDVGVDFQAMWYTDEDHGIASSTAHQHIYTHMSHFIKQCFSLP
neuraminidase of oseltamivir-sensitive influenza virus, sequence (P03468 whole entry, looked up): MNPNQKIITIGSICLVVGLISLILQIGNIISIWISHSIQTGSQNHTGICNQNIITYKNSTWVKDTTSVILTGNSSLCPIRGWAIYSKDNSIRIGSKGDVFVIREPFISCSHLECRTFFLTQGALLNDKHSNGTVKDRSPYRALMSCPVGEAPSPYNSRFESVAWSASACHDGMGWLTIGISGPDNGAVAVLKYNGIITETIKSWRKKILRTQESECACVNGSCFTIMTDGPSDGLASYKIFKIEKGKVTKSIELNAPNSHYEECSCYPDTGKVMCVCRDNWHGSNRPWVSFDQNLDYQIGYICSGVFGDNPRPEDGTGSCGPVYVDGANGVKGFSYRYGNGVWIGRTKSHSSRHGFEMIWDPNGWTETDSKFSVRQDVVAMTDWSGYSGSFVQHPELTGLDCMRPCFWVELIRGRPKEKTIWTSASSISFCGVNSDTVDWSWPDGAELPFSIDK

Take “Angiotensin II (DRVYIHPF; Angiotensin-2; UniProt P01019 25-32, looked up)”: in assay [1] (AGTR1, Arrestin), the “Max Response” value was found to be 101.02 and the EC50 turned out to be 0.0102 µM.
As for `COCCCOc1cc(CC(CC2NC(=O)OC2CC(C(=O)NCC(C)(C)C#N)C(C)C)C(C)C)ccc1OC` (centres unmarked) [comparative example], the “Anti-influenza neuraminidase activity (in words)” value in assay [2] is given as “No activity was observed”.
As to `NC(=O)CC[C@@H]1NC(=O)[C@H](Cc2ccccc2)NC(=O)[C@H](Cc2ccc(O)cc2)NC(=O)[C@@H](N)CSSC[C@@H](C(=O)N2CCC[C@H]2C(=O)N[C@@H](CCCN=C(N)N)C(=O)NCC(N)=O)NC(=O)[C@H](CC(N)=O)NC1=O` [Vasopressin], in assay [1] (AVPR2, Arrestin), the “Max Response” value worked out at 101.99 and the EC50 was 0.000767 µM.
`CC(C)c1nc(N(C)S(C)(=O)=O)nc(-c2ccc(F)cc2)c1/C=C/[C@@H](O)C[C@@H](O)CC(=O)O` [Rosuvastatin, reference compound]: the “In vivo (plasma triglycerides)” value is “Reduction in” in the assay with plasma triglycerides (25 mg/kg) and “marked reduction in plasma triglycerides” in the assay on plasma triglycerides (listed as rosuvastatin, 25 mg/kg).
On to `CC1=C(/C=C/C(C)=C\C=C\C(C)=C\C(=O)O)C(C)(C)CCC1` [9 Cis Retanoic acid], for which, in assay [3], the “Max Response” value is 87.826 and 98.978; the EC50 was 0.00504 µM and 0.00714 µM.
As to `N[C@@H](CCN1CCn2c(nnc2C(F)(F)F)C1)Cc1cc(F)c(F)cc1F` [Compound 24a, (R)-4-(3-(Trifluoromethyl)-5,6-dihydro-[1,2,4]triazolo[4,3-a]pyrazin-7(8H)-yl)-1-(2,4,5-trifluorophenyl)butan-2-amine], the “Activity as inhibitor of DPPIV (in words)” value on DPPIV is listed as “showed an activity”. At DPPIV (DPPIV, substrate Gly-Pro-AMC), this compound returned an IC50 of 0.0813 µM.
Turning to `COc1ccc(-c2ccc3cc(C(=O)O)ccc3c2)cc1C12CC3CC(CC(C3)C1)C2` [Adapalene], in assay [3], the Emax worked out at 147% and the EC50 is 0.0018 µM.
As to `CCOC(=O)C1=C[C@@H](OC(CC)CC)[C@H](NC(C)=O)[C@@H](N)C1` [Oseltamivir, oseltamivir, reference compound], the 90% effect level in assay [2] (EC90) was put at 0.0013 µM.
Consider `COC(Cn1c([N+](=O)[O-])cnc1C)OC` [Compound 3a, 1-(2,2-Dimethoxyethyl)-2-methyl-5-nitro-1H-imidazole], for which the MIC was 0.5 µg/mL (≈ 2.32 µM) in assay [4] (setting [5]); at most 0.25 µg/mL in assay [4] (Clostridioides difficile, 48 h); 1 µg/mL (≈ 4.65 µM) in assay [4] (Clostridium perfringens, 48 h); 0.5 µg/mL (≈ 2.32 µM) in assay [4] (setting [6]).
On to `CON=Cc1ccc2cc(-c3ccc(OC)c(C45CC6CC(CC(C6)C4)C5)c3)ccc2c1` [Compound 5b, 6-(3-(Adamantan-1-yl)-4-methoxyphenyl)-2-naphthaldehyde O-methyl oxime], for which, in assay [3], the Emax was 81.1% and the EC50 amounted to 0.83 µM.
Consider `COc1ccc(-c2ccc3cc(C=O)ccc3c2)cc1C12CC3CC(CC(C3)C1)C2` [Formula 135; Z is C(O)H], for which, in assay [3], the “Max Response” value amounted to 115.93 and the EC50 turned out to be 0.142 µM.
Regarding `COc1ccc(-c2ccc3cc(C=NO)ccc3c2)cc1C12CC3CC(CC(C3)C1)C2` [Compound 5a, 6-(3-(Adamantan-1-yl)-4-methoxyphenyl)-2-naphthaldehyde oxime], in assay [3], the Emax was found to be 45.1% and the EC50 worked out at 1.27 µM.
As to `CON=C(CC(=O)N1CCn2c(nnc2C(F)(F)F)C1)Cc1cc(F)c(F)cc1F` (mixture of isomers) [Compound 24b, 3-(Methoxyimino)-1-(3-(trifluoromethyl)-5,6-dihydro-[1,2,4]triazolo[4,3-a]pyrazin-7(8H)-yl)-4-(2,4,5-trifluorophenyl)butan-1-one], at DPPIV, the “Activity as inhibitor of DPPIV (in words)” value is “did not exhibit significant activity”.
Consider `Cn1c(CCCC=O)nc2cc(N(CCCl)CCCl)ccc21` [Compound 6a, 4-(5-(Bis(2-chloroethyl)amino)-1-methyl-1H-benzo[d]imidazol-2-yl)butanal], for which, in the assay on HepG2 cells (Example 93, dosed 0.04-100 μM), the “MEC (minimum effective concentration that significantly crosses vehicle threshold)” value amounted to 4 µM and the AC50 worked out at 5.83 µM. In addition, the “Activity in HepG2 cell assay (in words)” value in the assay on HepG2 cells (Example 93, 0.04-100 μM, 72 hours) is listed as “exhibited a higher activity than compound 6b”.
Turning to `Cc1ncc([N+](=O)[O-])n1CCO` [Metronidazole, metronidazole, reference compound], the MIC in assay [4] (setting [5]) is 0.25 µg/mL (≈ 1.46 µM); in assay [4] (Clostridioides difficile, 48 h), at most 0.25 µg/mL; in assay [4] (Clostridium perfringens, 48 h), 0.5 µg/mL (≈ 2.92 µM); in assay [4] (setting [6]), 0.25 µg/mL (≈ 1.46 µM).
On to `CC(C)OC1C[C@H](OCc2ccccc2)C[C@@H](/C=C/c2c(-c3ccc(F)cc3)nc(N(C)S(C)(=O)=O)nc2C(C)C)O1` (some centres unmarked), for which the “In vivo (plasma triglycerides)” value in the assay on plasma triglycerides was “Reduction in plasma triglycerides”.
Still for that read-out and setting: then `COC1C[C@H](OC(=O)c2cccnc2)C[C@@H](/C=C/c2c(-c3ccc(F)cc3)nc(N(C)S(C)(=O)=O)nc2C(C)C)O1` (some centres unmarked), with “Reduction in plasma triglycerides”.
For `CON=CCn1c([N+](=O)[O-])cnc1C` [Compound 3b, 2-(2-Methyl-5-nitro-1H-imidazol-1-yl)acetaldehyde O-methyl oxime], the MIC in assay [4] (setting [5]) is 0.5 µg/mL (≈ 2.52 µM); in assay [4] (Clostridioides difficile, 48 h), at most 0.25 µg/mL; in assay [4] (Clostridium perfringens, 48 h) it was 1 µg/mL (≈ 5.05 µM); in assay [4] (setting [6]), 0.5 µg/mL (≈ 2.52 µM).
For the compound `Cn1c(CCCC(=O)O)nc2cc(N(CCCl)CCCl)ccc21` [Bendamustine, bendamustine, reference compound], in the assay with HepG2 cells (Example 93, dosed 0.04-100 μM), the “MEC (minimum effective concentration that significantly crosses vehicle threshold)” value was determined as 40 µM and the AC50 came to 92.3 µM.
`C=C(c1ccc(C=NO)cc1)c1cc2c(cc1C)C(C)(C)CCC2(C)C` [Compound 13a, 4-(1-(3,5,5,8,8-Pentamethyl-5,6,7,8-tetrahydronaphthalen-2-yl)vinyl)benzaldehyde oxime]: in the assay with HepG2 cells (setting [7]), the “MEC (minimum effective concentration that significantly crosses vehicle threshold)” value amounted to 40 µM and the AC50 was 15.8 µM.
Consider `COc1ccc(-c2ccc3cc(CO)ccc3c2)cc1C12CC3CC(CC(C3)C1)C2` [Formula 135; Z is CH2OH], for which, in assay [3], the “Max Response” value was 131.9 and the EC50 worked out at 0.199 µM.
